{"source": "patent US11980613B2", "about": "“Methods for reversing HIV latency using BAF complex modulating compounds” (priority 2018, dated 2024)", "key": {"[1]": {"system": "Bmi1-luciferase reporter cell line", "experiment": "Bmi1-luciferase reporter assay (screen for inhibitors of BAF-mediated transcriptional repression)", "assay_type": "cell-based, mouse", "conditions": "for activity in the Bmi1 luciferase reporter assays: grading in words", "procedure": "Low passage mESCs from 129 mice (20 million, p10) were electroporated with 40 μg of a linearized construct consisting of 2 kb homology upstream of the Bmi1 locus, firefly luciferase at exon 1 of Bmi1 followed by loxP neo and a 6 kb 3′ homology arm with thymidine kinase outside the homology arms. The cells were plated on 10 gelatin treated plates (60 mm) of irradiated neo resistant MEFs and selected with G418 and ganciclovir for 5 days. 384 colonies were selected, trypsinized and replated in gelatin treated 24-well plates for expansion. The cells were split and DNA was isolated for digestions with EcoRI or BamHI. We confirmed the successful homologous recombination in 7 out 384 colonies using Southern blot analysis at both the 5′ (EcoRI) and 3′ (BamHI) end (see Table S2 of Marian et al., “Small Molecule Targeting of Specific BAF (mSWI/SNF) Complexes for HIV Latency Reversal,” Cell Chem. Biol. (Dec. 20, 2018) 25: 1443-1445). We deleted the neomycin cassette using transfected Cre recombinase and confirmed the excision at all clones using a second round of Southern blot analysis at the 3′ end (BamHI).\n(§1) 3. Compound Treatment: 10,000 cells in 30 μL ESC media were plated in white 384 well CellBind plates. The cells were cultured in a 37° C., 5% CO2 incubator for 24 h and 100 nL/well of 0.75 mM of positive control (Pubchem SID: 85814977) or 100 nL/well of 3.75 mM compound library (primary screen) was added via pin transfer into plates. There was no effect on assay readout at DMSO concentrations up to 0.5%. The cells were cultured in a 37° C., 5% CO2 incubator for 24 h for luciferase reporter assay and 18 h for qRT-PCR assay. 4. Luciferase assay: (PubChem AID 602393 primary, PubChem AID 651717 confirmatory.) The assay plates were removed from the incubator and equilibrates for 10 minutes to room temperature. Promega SteadyGlo® solution (10 μL/well) was added to each well of the assay plates. The assay plates were mixed at 1000 rpm for 15 seconds and then incubated for 10 minutes at room temperature. The luciferase levels were read on a Perkin Elmer Envision in Ultra Sensitive Luminescence mode. Signals remained stable up to 2 hours. 5. EqRT-PCR secondary screen (PubChem AID 743180, 743177, 743176) The qRTPCR screen was performed as published^54. In brief, 5,000 ES cells were plated on gelatin-coated 384-well tissue culture plates and cultured in a 37C, 5% CO2 incubator. 24 h later, hit compounds in 100 nL DMSO were treated at eight different doses. 18 h after compound treatment cells were washed two times with 100 μL PBS and all excess PBS was removed by centrifuging the plates upside down at 1000 rpm. The Ambion® Cells-to-Ct kit was used to generate cDNA. In brief, the cells were lysed in the plate in 10 μL lysis buffer containing DNase for 10 minutes and quenched with 1 μL lysis stop buffer. The lysate (2 μL) was added to 5 μL RT reaction buffer (2×), 2.5 μL nuclease-free water and 0.5 μL Reverse transcriptase (20×) and incubated at 37° C. for 60 minutes and 95° C. for 1 minute to generate 10 μL of cDNA. cDNA (1 μL) was used in each 5 μL qPCR reaction with Roche master mix and TaqMan probes (Applied Biosystems) for Bmi1-FAM (Mm00776122_gH), Ring1a-FAM (Mm01278940_m1/4331182), or Fgf4-FAM (Mm00438916_g1/4351372) alongside actin-VIC (4352341E) for a loading control. The qPCR was run accordingly: 95° C. for 10 minutes Then 55 cycles of: 95° C. for 10 seconds followed by 60° C. for 30 seconds. The fold increase in transcription was calculated using the ΔΔCT method^84. 6. Viability Assays (PubChem AID: 743188, 743189, 743190, 1053139, 1053140, 1053141)"}, "[2]": {"system": "BAF target genes (Bmi1, Ring1, Fgf4)", "experiment": "qRT-PCR of BAF target genes in ESCs", "assay_type": "cell-based, mouse", "conditions": "30 μM of compound, 18 h", "procedure": "as §1, with “The lysate (2 μL) was added to 5 μL RT reaction buffer (2×), 2.5 μL nuclease-free water and 0.5 μL Reverse transcriptase (20×) and incubated at 37° C. for 60 minutes and 95° C. for 1 minute to generate 10 μL of cDNA. cDNA (1 μL) was used in each 5 μL qPCR reaction with Roche master mix and TaqMan probes (Applied Biosystems) for Bmi1-FAM (Mm00776122_gH), Ring1a-FAM (Mm01278940_m1/4331182), or Fgf4-FAM (Mm00438916_g1/4351372) alongside actin-VIC (4352341E) for a loading control. The qPCR was run accordingly: 95° C. for 10 minutes Then 55 cycles of: 95° C. for 10 seconds followed by 60° C. for 30 seconds.” left out, “6. Viability Assays (PubChem AID: 743188, 743189, 743190, 1053139, 1053140, 1053141)” left out"}, "wild type ESCs": {"system": "wild type ESCs", "experiment": "Viability in wild type ESCs (CellTiter-Glo)", "assay_type": "cell-based, mouse", "conditions": "up to 30 μM; 72 h", "procedure": "FIG. 2: 12-membered macrolactams are inhibitors of BAF-mediated transcription. A. The EC50 was measured for the best screen hit BRD-K98645985 after 24 h compound treatment with the Bmi1-luciferase reporter cell line. Each concentration was dosed in triplicate. B. The fold change of the transcription of three BAF target genes was calculated using qRT-PCR after 18 h BRD-K98645985 treatment (30 μM) or Brg1 knockdown compared to untreated cells. C. Viability measurements in wild type ESCs were performed after 72 h of compound or DMSO treatment using CellTiter-Glo®. D. The structure activity relationship of the eight stereoisomers of BRD-K98645985 based on initial luciferase induction from the primary screen. E. The structure activity relationship of the 3618 macrolactam library members based on initial luciferase induction from the primary screen.\nCell culture: HepG2, A549 and HEK293 cells were propagated to 95% confluence in DMEM containing 10% FBS 1% Pen/Strep, 1% L-Glutamine. Cells were plated at 2000 per well in 40 μL media in white tissue culture treated 384-well plates and incubated at 5% CO2; 95% humidity, 37° C. for 24 hours. […] The plates were read on Perkin-Elmer EnVision with standard luminescence settings for 0.1 sec per well."}, "HepG2 cells": {"system": "HepG2 cells", "experiment": "Viability assay HepG2", "assay_type": "cell-based", "conditions": "72 h", "procedure": "(§2) Cell culture: HepG2, A549 and HEK293 cells were propagated to 95% confluence in DMEM containing 10% FBS 1% Pen/Strep, 1% L-Glutamine. Cells were plated at 2000 per well in 40 μL media in white tissue culture treated 384-well plates and incubated at 5% CO2; 95% humidity, 37° C. for 24 hours. Compound (100 nL) was added to wells using a pin tool (CyBi Well) alongside 100 nL cytotoxic compounds, mitoxantrone (final concentration of 10 μM) as a positive control. The cells were incubated for 72 hours at 37° C., 95% humidity 5% CO2. Plates were removed from the incubator, equilibrated for 15 minutes to room temperature; and 20 μL 50% Promega CellTiterGlo (diluted 1:1 with PBS, pH 7.4) was added. The plates were read on Perkin-Elmer EnVision with standard luminescence settings for 0.1 sec per well."}, "HEK293T cells": {"system": "HEK293T cells", "experiment": "Viability assay HEK293T", "assay_type": "cell-based", "conditions": "72 h", "procedure": "as §2"}, "A549 cells": {"system": "A549 cells", "experiment": "Viability assay A549", "assay_type": "cell-based", "conditions": "72 h", "procedure": "as §2"}, "[3]": {"system": "latent provirus in J-Lat T-cell line", "experiment": "Cell line models of HIV-1 latency (J-Lat, GFP)", "assay_type": "cell-based", "conditions": "higher concentrations than in primary cells; 48 h", "procedure": "[drawing 27] i. BRD-K25923209: To Macrocycle 2141-039b (0.804 g, 1.550 mmol) dissolved in MeOH (Volume: 15.50 ml) was added tin(II) chloride dihydrate (3.50 g, 15.50 mmol). […] Upon completion, the reaction mixture was concentrated and the resulting residue was dissolved in EtOAc and washed with 2 M aq. KOH (2×). The combined aqueous layers were washed with EtOAc (4×). The resulting organic layers were washed with brine, saturated aqueous NaHCO3, water, and brine, dried over MgSO4, filtered, and concentrated. […] BRD-K80443127: A screwtop vial was charged with aniline (BRD-K25923209) (43.3 mg, 0.089 mmol) and CH2Cl2 (Volume: 886 μl, Density: 1.325 g/ml). Isopropyl chloroformate (115 μl, 0.115 mmol) and DIEA (46.4 μl, 0.266 mmol) were added dropwise and reaction stirred under ambient conditions for 1 h. […] BRD-K04244835: A 2.5 mL microwave vial was charged with aniline (BRD-K25923209) (40 mg, 0.082 mmol) and EtOH (Volume: 819 μl, Density: 0.81 g/ml). Squaramide (CRE-III-001) (20.75 mg, 0.098 mmol), DIEA (42.8 μl, 0.246 mmol), and DMAP (2.000 mg, 0.016 mmol) were added in sequence and the vial was sealed. […] 9. […] 10. […] 11."}, "[4]": {"system": "latent HIV-1 infected T cells", "experiment": "HIV latency reversal activity of the thiophene hit", "assay_type": "cell-based"}, "[5]": {"system": "latent HIV-1 in CD4+ T cells from c-ART treated HIV-1 infected patients", "experiment": "HIV latency reversal from patient samples (cell associated HIV Pol mRNA)", "assay_type": "cell-based, human", "conditions": "Patient 1 (one patient); single agents; 24 hours", "procedure": "23. HIV latency reversal from patient samples: All patients were older than 18 years, c-ART treated for at least 3 years, and their viral loads were below 50 copies/ml for more than 12 months with no blips in the past two years. CD4+ T cells from aviremic HIV+ patients were isolated as described previously^55 with minor modifications. Briefly, frozen PBMCs were cultured in RPMI medium over-night to recover. Then next day CD4+ T cells were isolated twice (enriched CD4+ T cells were subjected to a second round of CD4+ T cell enrichment) and left for 6 hrs to recover. Three million cells were treated with DMSO, 10 μM BRD-K80443127, 200 nM Prostratin, 10 μM BRD-K80443127 and 200 nM prostratin, and αCD3/CD28 magnetic beads (at cell:bead ration 1:1) as a positive control in triplicate. After 24 hours cells were lysed in TRIreagent (Sigma), total RNA was isolated with Total RNA Zol-Out (A&A Biotechnology) kit and cDNA was synthetized using random primers and Superscript II Reverse Transcriptase (Life Technologies). Detection of cellular associated pol RNA was performed as described previously (Pol: For […] (SEQ ID NO:15), Rev-[…] (SEQ ID NO: 16))^55. This study was conducted in accordance with the ethical principles of the Declaration of Helsinki. HIV-1 infected patient volunteers were informed and provided signed consent to participate in the study. The study protocol was approved by The Netherlands Medical Ethics Committee (MEC-2012-583). cDNA generated from control and 10 μM BRD-K80443127 treated samples was used to assess expression of BAF target genes biomarker genes-p21 and C-MYC."}}, "data": [{"compound": "CCC(CC)Nc1c(Nc2ccc3c(c2)C(=O)N(C)C[C@H](OC)[C@@H](C)CN(Cc2ccc(-c4ccccn4)cc2)[C@@H](C)CO3)c(=O)c1=O", "note": "[BRD-K04244835]", "values": [{"measurement": "activity in the Bmi1 luciferase reporter assays", "setting": "[1]", "value": "low/no activity"}]}, {"compound": "CO[C@H]1CN(C)C(=O)c2cc(NC(=O)NC(C)C)ccc2OC[C@H](C)N(Cc2ccccc2)C[C@@H]1C", "note": "[BRD-K13648511]", "values": [{"measurement": "activity in the Bmi1 luciferase reporter assays", "setting": "[1]", "value": "low/no activity"}]}, {"compound": "CO[C@H]1CN(C)C(=O)c2cc(NC(=O)NC(C)C)ccc2OC[C@H](C)N(Cc2ccc(-c3cccnc3)cc2)C[C@@H]1C", "note": "[BRD-K17257309]", "values": [{"measurement": "activity in the Bmi1 luciferase reporter assays", "setting": "[1]", "value": "moderate activity"}]}, {"compound": "CO[C@H]1CN(C)C(=O)c2cc(N)ccc2OC[C@H](C)N(Cc2ccc(-c3ccccn3)cc2)C[C@@H]1C", "note": "[BRD-K25923209]", "values": [{"measurement": "activity in the Bmi1 luciferase reporter assays", "setting": "[1]", "value": "high activity"}]}, {"compound": "CO[C@H]1CN(C)C(=O)c2cc(NC(=O)NC(C)C)ccc2OC[C@H](C)N(Cc2ccc(-c3ccccn3)cc2)C[C@@H]1C", "note": "[BRD-K98645985]", "values": [{"measurement": "activity in the Bmi1 luciferase reporter assays", "setting": "[1]", "value": "high activity"}, {"measurement": "EC50", "setting": "[1]; re-evaluation of hit, 24 h compound treatment", "value": "~2.37", "unit": "µM"}, {"measurement": "fold decrease in Fgf4", "setting": "[2]", "value": 3.3, "unit": "fold"}, {"measurement": "fold increase in Bmi1", "setting": "[2]", "value": 5, "unit": "fold"}, {"measurement": "fold increase in Ring1", "setting": "[2]", "value": 2.6, "unit": "fold"}, {"measurement": "toxicity to ESCs", "setting": "wild type ESCs", "value": "no toxicity"}, {"measurement": "toxicity to HepG2 cells", "setting": "HepG2 cells", "value": "no toxicity"}, {"measurement": "toxicity to HEK293T cells", "setting": "HEK293T cells", "value": "no toxicity"}, {"measurement": "toxicity to A549 cells", "setting": "A549 cells", "value": "no toxicity"}, {"measurement": "latency reversal (GFP)", "setting": "[3]", "value": "concentration dependent latency reversal"}]}, {"compound": "C=CCNc1nc(NCc2cccc(OC)c2)c2sc(-c3ccccc3)cc2n1", "note": "[MLS003122856]", "values": [{"measurement": "HIV latency reversal activity", "setting": "[4]", "value": "moderate"}]}, {"compound": "CC(=O)O[C@@]12C[C@@H](C)[C@@]3(O)[C@@H](C=C(CO)C[C@]4(O)C(=O)C(C)=C[C@@H]34)[C@@H]1C2(C)C", "note": "[prostratin, reference compound]", "values": [{"measurement": "cell associated HIV mRNA (Pol), response", "setting": "[5]", "value": "responded"}]}]}
